Data: PubChem BioAssay AID1963964 (Molecular Pharmacology Branch, DTP, NCI, 2024)

Tested on: 997726-040-R-J2-PDC tumor spheroids, viability
Experiment: Anticancer human tumor 997726-040-R-J2-PDC patient-derived squamous cell lung carcinoma cell line growth inhibition [PI3K]
Details: spheroids with HUVEC and MSC; for IC50: curve of first compound; for viability, T/C: stronger effect = lower value
How it was run: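 Spheroid viability read-out. Co-cultures contained the tumor line plus HUVEC and human MSCs. Each agent was paired with a PI3K inhibitor (inavolisib, alpelisib, duvelisib, copanlisib) across half-log dilutions starting at clinical Cmax, or at 10 microM when Cmax was unknown.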

[1] = second compound 0.00316 µM, first compound 0.0316 µM
[2] = second compound 0.00316 µM, first compound 0.1 µM
[3] = second compound 0.00316 µM, first compound 0.316 µM
[4] = second compound 0.00316 µM, first compound 1 µM
[5] = second compound 0.00316 µM, first compound 3.16 µM
[6] = second compound 0.00316 µM, first compound 10 µM
[7] = second compound 0.01 µM, first compound 0.0316 µM
[8] = second compound 0.01 µM, first compound 0.1 µM
[9] = second compound 0.01 µM, first compound 0.316 µM
[10] = second compound 0.01 µM, first compound 1 µM
[11] = second compound 0.01 µM, first compound 3.16 µM
[12] = second compound 0.01 µM, first compound 10 µM
[13] = second compound 0.0316 µM, first compound 0.0316 µM
[14] = second compound 0.0316 µM, first compound 0.1 µM
[15] = second compound 0.0316 µM, first compound 0.316 µM
[16] = second compound 0.0316 µM, first compound 1 µM
[17] = second compound 0.0316 µM, first compound 3.16 µM
[18] = second compound 0.0316 µM, first compound 10 µM
[19] = second compound 0.1 µM, first compound 0.0316 µM
[20] = second compound 0.1 µM, first compound 0.1 µM
[21] = second compound 0.1 µM, first compound 0.316 µM
[22] = second compound 0.1 µM, first compound 1 µM
[23] = second compound 0.1 µM, first compound 3.16 µM
[24] = second compound 0.1 µM, first compound 10 µM
[25] = second compound 0.316 µM, first compound 0.0316 µM
[26] = second compound 0.316 µM, first compound 0.1 µM
[27] = second compound 0.316 µM, first compound 0.316 µM
[28] = second compound 0.316 µM, first compound 1 µM
[29] = second compound 0.316 µM, first compound 3.16 µM
[30] = second compound 0.316 µM, first compound 10 µM
[31] = second compound 1 µM, first compound 0.0316 µM
[32] = second compound 1 µM, first compound 0.1 µM
[33] = second compound 1 µM, first compound 0.316 µM
[34] = second compound 1 µM, first compound 1 µM
[35] = second compound 1 µM, first compound 3.16 µM
[36] = second compound 1 µM, first compound 10 µM
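Note: spheroids exposed to compounds for seven days before readout.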

Cn1ncc(Cl)c1-c1cc(C(=O)NC(CN)Cc2cccc(F)c2)sc1Cl (centres undefined) + COc1c(OCCCN2CCOCC2)ccc2c3n(c(=NC(=O)c4cnc(N)nc4)nc12)CCN3
IC50 (second compound 0.00316 µM): 53.2 nM | IC50 (second compound 0.01 µM): < 31.6 nM | IC50 (second compound 0.0316 µM): < 31.6 nM | IC50 (second compound 0.1 µM): < 31.6 nM | IC50 (second compound 0.316 µM): < 31.6 nM | IC50 (second compound 1 µM): < 31.6 nM | viability, T/C [1]: 55.2% | viability, T/C [2]: 43.9% | viability, T/C [3]: 25.2% | viability, T/C [4]: 15.7% | viability, T/C [5]: 9.84% | viability, T/C [6]: 10.3% | viability, T/C [7]: 46.3% | viability, T/C [8]: 39% | viability, T/C [9]: 21.6% | viability, T/C [10]: 12.4% | viability, T/C [11]: 7.68% | viability, T/C [12]: 10.1% | viability, T/C [13]: 30.6% | viability, T/C [14]: 28% | viability, T/C [15]: 20% | viability, T/C [16]: 10.6% | viability, T/C [17]: 8.98% | viability, T/C [18]: 7.48% | viability, T/C [19]: 21.4% | viability, T/C [20]: 19.4% | viability, T/C [21]: 12.5% | viability, T/C [22]: 8.76% | viability, T/C [23]: 8.67% | viability, T/C [24]: 5.52% | viability, T/C [25]: 4.97% | viability, T/C [26]: 5.24% | viability, T/C [27]: 3.32% | viability, T/C [28]: 4.64% | viability, T/C [29]: 4.59% | viability, T/C [30]: 3.13% | viability, T/C [31]: 1.15% | viability, T/C [32]: 1.24% | viability, T/C [33]: 1.45% | viability, T/C [34]: 1.8% | viability, T/C [35]: 2.57% | viability, T/C [36]: 0.94%

CC1(C)CCC(Nc2ncc(C(F)(F)F)c(-c3c[nH]c4c(P(C)(C)=O)c(C#N)ccc34)n2)CN1 (centres undefined) + COc1c(OCCCN2CCOCC2)ccc2c3n(c(=NC(=O)c4cnc(N)nc4)nc12)CCN3
IC50 (second compound 0.00316 µM): < 31.6 nM | IC50 (second compound 0.01 µM): < 31.6 nM | IC50 (second compound 0.0316 µM): < 31.6 nM | IC50 (second compound 0.1 µM): < 31.6 nM | IC50 (second compound 0.316 µM): < 31.6 nM | IC50 (second compound 1 µM): < 31.6 nM | viability, T/C [1]: 36.8% | viability, T/C [2]: 34.2% | viability, T/C [3]: 40.7% | viability, T/C [4]: 34.8% | viability, T/C [5]: 39.8% | viability, T/C [6]: 16.6% | viability, T/C [7]: 27% | viability, T/C [8]: 28.9% | viability, T/C [9]: 29.9% | viability, T/C [10]: 30.5% | viability, T/C [11]: 33.6% | viability, T/C [12]: 12.6% | viability, T/C [13]: 21.4% | viability, T/C [14]: 17.6% | viability, T/C [15]: 18.2% | viability, T/C [16]: 24.8% | viability, T/C [17]: 23.9% | viability, T/C [18]: 7.84% | viability, T/C [19]: 13.5% | viability, T/C [20]: 12.1% | viability, T/C [21]: 13.2% | viability, T/C [22]: 13.9% | viability, T/C [23]: 15% | viability, T/C [24]: 2.98% | viability, T/C [25]: 3.97% | viability, T/C [26]: 3.68% | viability, T/C [27]: 3.96% | viability, T/C [28]: 5.01% | viability, T/C [29]: 4.34% | viability, T/C [30]: 0.66% | viability, T/C [31]: 0.85% | viability, T/C [32]: 0.74% | viability, T/C [33]: 0.9% | viability, T/C [34]: 0.76% | viability, T/C [35]: 0.9% | viability, T/C [36]: 0.33%
